This note sets out measurements from US20060223812A1, “Treating neurodegenerative conditions” (MAX-PLANCK-GESELLSCHAFT ZUR FORDERUNGDER WISSENSCHAFTEN, …, priority 2004, published 2006).

Each structure is given as a SMILES string. Where two headings read alike, the source gives them in different places.

Assay [1] deals with T1, tau construct K19 (Homo sapiens, UniProt P10636).
T1 construct: construct K19 containing three repeats; made in house; host or cells: E. coli
The assay is described as follows: Thioflavine S assay, inhibition of PHF formation, K19. To be noted: ThS fluorescence, 10 μM K19, heparin; read-out: Inhibition of tau aggregation IC50, K19. In kind it is biochemical. The procedure: (§1) Assembly of synthetic PHFs of tau protein (K19, 10 μM) was performed at 37° C. in the presence of polyanions (heparin; 5 μM) in 50 mM NH4Ac, pH 6.8. Assembly was followed either qualitatively by electron microscopy or quantitatively by fluorescence assay using thioflavine S. PHF-formation of tau isoforms htau23 and htau24 was carried out in PBS-buffer pH 7.4, 50 μM protein, and 12.5 μM heparin. The samples were incubated at 50° C. for 10 days. In the case of htau24 and K18, DTT was added at a final concentration of 1 mM each day in order to avoid intra-molecular disulfide crosslinking (Barghorn et al., 2000).
(§2) PHF formation was monitored by a thioflavine S fluorescence assay (Friedhoff et al., 1998a) adapted to a 384 well format. 60 μM of each substance was tested for its inhibitory effect on PHF formation. Using an automated pipetting system (Cybi-Well, CyBio, Jena, Germany) 50 mM NH4AC, 10 μM protein (K19), 60 μM compound and 5 μM heparin were mixed in 50 μl volume in a 384 well plate (black microtiter 384 plate round well, ThermoLabsystems, Dreiich, Germany) and incubated overnight at 37° C. As a control the protein was replaced with H2O to measure the possible fluorescence of the compounds. As a second control the reaction mixture without compound was treated in the same way.
(§3) After incubation with the compounds thioflavine S was added to the buffer to a final concentration of 20 μM and the signal was measured at excitation at 440 nm and emission at 521 nm in a spectrofluorimeter (Ascent; Labsystems, Frankfurt).
Inhibitory effects begun to appear at concentrations around 0.1 μM (ratio of protein to compound=100), and reached nearly complete inhibition at 100 μM compound concentration (ratio protein/compound=0.1). Overall, the curves of FIG. 2A decay fairly steeply over a compound concentration range of 2-3 orders of magnitude.
(A) extent of aggregation of tau construct K19 (10 μM) plotted vs. inhibitor concentration (range 1 fM-60 μM). The extent of aggregation was measured by the thioflavin S fluorescence assay and the degree of inhibition was plotted as percentage of control. All measurements were performed in triplicates.

Assay [2] has as its target T2, four repeat construct K18 (Homo sapiens, UniProt P10636).
T2 construct: made in house; host or cells: E. coli
Briefly: Thioflavine S assay, inhibition of PHF formation, K18. Type of assay: biochemical. As to the method:
as §1, §2, §3
The four repeat construct K18 was tested under the same conditions (FIG. 2B). […] However, the decay of the curves of K18 is more gradual than those of K19, extending over 3-4 orders of magnitude of compound concentration (compare FIG. 2A).

Assay [3] addresses T3, htau23 (Homo sapiens, UniProt P10636).
T3 construct: made in house; host or cells: E. coli
The assay is described as follows: Thioflavine S assay, inhibition of PHF formation, htau23. In kind it is biochemical. As to conditions: for inhibition at 0.1 µM / inhibition at 60 µM: read-out: inhibition of PHF formation, htau23; for effect on PHF formation, htau23: low concentration. The procedure:
as §1

Assay [4] deals with K18/Y310W. Briefly: Tryptophan fluorescence inhibition assay, K18/Y310W. In kind it is biochemical, human. To be noted: 60 μM compound. The text has this:
In order to exclude a possible distortion of the data by the dye the results of the ThS assays can be confirmed by a tryptophan fluorescence assay (Li et al., 2002). It allows the detection of the molecular environment of a tryptophan introduced instead of tyrosine 310 whose emission maximum is sensitive to the burial in a more hydrophobic surrounding upon PHF formation. Therefore the mutants K19/Y310W (FIG. 1I) and K18/Y310W (FIG. 1H) that contain a single tryptophan within the core of the PHF structure were created. In the soluble protein the emission maximum lies at ˜354 nm, whereas it shifts to 340 nm upon PHF formation (FIG. 3A, compare first and second entry). The emission peak can be shifted back by incubation at high concentrations of GuHCl which is due to the disassembly of the PHFs (FIG. 3A, fourth entry).
The fluorescence experiments were performed on a Spex Fluoromax spectrophotometer (Polytec, Waldbronn, Germany) using 3 mm×3 mm micro cuvettes from Hellma (Mühlheim, Germany) with 20 μl sample volumes. A tryptophan emission spectrum scans from 300 to 450 nm at fixed excitation wavelength of 290 nm. The slit widths were 5 nm, the integration time was 0.25 second, and the photomultiplier voltage was 950 V. For fluorescence inhibition assay, 60 μM compounds were incubated with K19/Y310W construct (10 μM) or K18/ΔK280/Y310W and heparin (2.5 μM) in PBS, pH 7.4 three days at 37° C.
In the Trp fluorescence assay the inhibition of PHF assembly becomes apparent if the emission maximum of Trp310 remains higher than that of the control without any compound, because Trp310 remains in a more solvent-accessible hydrophilic environment. The three repeat tau construct K19 (at 10 μM) was prevented from polymerisation by about 90% by the presence of all compounds at a concentration, of 60 μM (FIG. 3A, note that entries 5-9 retain their values around 354 nm, similar to the control #1). […] The internal ranking stays roughly the same as with K18; PHF005 (#9) is the best, PHF016 (#8) the worst inhibitor. […] The apparent degrees of inhibition differ somewhat between the ThS fluorescence and the intrinsic Trp fluorescence assays, but this may be due to the different origins of the signal. In the ThS assay the dye has to bind to the filaments, which requires a minimal length of the fibres. The tryptophan fluorescence assay depends on the local surrounding of the residue and is therefore less dependent on the length of the filaments.
(A-C) fluorescence emission maximum of the single tryptophan W310 inserted by site-directed mutagenesis into tau constructs K19 (FIG. 3A), K18 (FIG. 3B) and K18/ΔK280 (FIG. 3C). Fully solvent-accessible Trp has an emission maximum at ˜355 nm, a blue-shift to lower wavelengths is an indicator of PHF aggregation. […]

The mark [5] stands for this setting: ThS fluorescence, K18, heparin, read-out: Inhibition of tau aggregation IC50, K18.
The mark [6] stands for this setting: ThS fluorescence, read-out: Inhibition of tau aggregation IC50, hTau23.

T1 sequence (P10636 with tags, fused parts or gaps isoform P10636-2 limits assumed): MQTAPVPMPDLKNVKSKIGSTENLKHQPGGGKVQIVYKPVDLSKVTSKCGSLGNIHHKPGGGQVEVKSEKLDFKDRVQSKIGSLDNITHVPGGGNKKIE
T2 sequence (P10636 561-685 limits assumed): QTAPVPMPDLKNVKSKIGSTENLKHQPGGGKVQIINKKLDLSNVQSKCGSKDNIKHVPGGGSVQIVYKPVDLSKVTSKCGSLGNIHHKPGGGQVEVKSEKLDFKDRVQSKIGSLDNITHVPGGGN
T3 sequence (P10636 1-352 isoform P10636-2): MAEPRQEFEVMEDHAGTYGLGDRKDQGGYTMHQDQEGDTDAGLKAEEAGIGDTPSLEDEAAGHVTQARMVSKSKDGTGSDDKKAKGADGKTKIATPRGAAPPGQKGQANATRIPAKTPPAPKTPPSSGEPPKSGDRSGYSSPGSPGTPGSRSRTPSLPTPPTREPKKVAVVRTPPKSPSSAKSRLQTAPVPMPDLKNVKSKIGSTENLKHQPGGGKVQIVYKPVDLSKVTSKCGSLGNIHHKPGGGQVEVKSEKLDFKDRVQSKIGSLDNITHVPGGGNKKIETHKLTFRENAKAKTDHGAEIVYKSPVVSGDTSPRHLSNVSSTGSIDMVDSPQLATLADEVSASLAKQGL

As for `COc1cccc2c1C(=O)c1c(O)c3c(c(O)c1C2=O)CC(O)(C(=O)CO)CC3OC1CC(N)C(O)C(C)O1` (stereo not drawn) [Adriamycin, 10-(4-Amino-5-hydroxy-6-methyl-tetrahydro-pyran-2-yloxy)-6,8,11-trihydroxy-8-(2-hydroxyethanoyl)-1-methoxy-7,8,9,10-tetrahydro-naphthacene-5,12-dione, reference compound], the results for the IC50 in assay [1], in assay [2] and in assay [3] were 17600 nM, 100 nM and 200 nM, respectively. Besides, in assay [4], the “inhibition of PHF formation, K18/Y310W, Trp fluorescence” value (shortened to “inhibition of PHF formation, K18/Y310W”) was “about 70%”.
As to `COc1cccc2c1C(=O)c1c(O)c3c(c(O)c1C2=O)CC(O)(C(C)=O)CC3OC1CC(N)C(O)C(C)O1` (stereo not drawn) [Daunorubicin, 8-Acetyl-10-(4-amino-5-hydroxy-6-methyl-tetrahydro-pyran-2-yloxy)-6,8,11-trihydroxy-1-methoxy-7,8,9,10-tetrahydro-naphthacene-5,12-dione, reference compound], the results for the IC50 in assay [1], in assay [2] (setting [5]) and in assay [3] (setting [6]) were 1000 nM, 300 nM and 100 nM, respectively. The inhibition (commonly the drop in the measured response relative to a control, in per cent) at 0.1 µM in assay [3] is around 50%. Besides, in assay [3], the inhibition at 60 µM is around 90%. The “inhibition of PHF formation, K18/Y310W” value in assay [4] is listed as “about 70%”.
Take `Cc1cc(O)c2c(c1)C(=O)c1cc(O)cc(O)c1C2=O` [Emodin, 1,3,8-Trihydroxy-6-methyl-anthraquinone]: the IC50 (commonly the concentration needed to halve the response being measured) was 2400 nM in assay [1], 300 nM in assay [2] (setting [5]) and 200 nM in assay [3] (setting [6]). Besides, the inhibition at 0.1 µM in assay [3] (0.1 μM compound) is around 50%. Moreover, the inhibition at 60 µM in assay [3] (60 μM compound) is around 90%. Further, in assay [4], the “inhibition of PHF formation, K18/Y310W” value is recorded as “about 70%”.
For the compound `O=C(c1ccccc1)c1ccc(O)c(O)c1O` [PHF005, 1-Phenyl-1-(2,3,4-trihydroxy-phenyl)-methanone], the results for the IC50 in assay [1], in assay [2] (setting [5]) and in assay [3] (setting [6]) were 6000 nM, 2700 nM and 1100 nM, respectively. The inhibition at 60 µM in assay [3] (60 μM compound) is around 50%. Moreover, in assay [3], the “effect on PHF formation, htau23” value is “only a slight effect”.
Consider `O=C1c2ccc(O)c(O)c2C(=O)c2c(O)ccc(O)c21` [PHF016, 1,2,5,8-Tetrahydroxy-anthraquinone], for which the IC50 is 6800 nM in assay [1], 600 nM in assay [2] (setting [5]) and 1000 nM in assay [3] (setting [6]). Moreover, the inhibition at 60 µM in assay [3] (60 μM compound) is around 50%. For the same compound, the “effect on PHF formation, htau23” value in assay [3] was “only a slight effect”. Moreover, the “inhibition of PHF formation, K18/Y310W” value in assay [4] came to 25%.
